Data taken from patent US9512140B2, “(Thieno[2,3-b][1,5]benzoxazepin-4-yl)piperazin-1-yl compounds as dual activity H1 inverse agonists/5-HT2A antagonists” (priority 2011, dated 2016).
Structures can show the parent of a compound that is named as a salt.

Legend:
[1] = target: Dopamine D2 (Homo sapiens, UniProt P14416); experiment: Dopamine D2 binding
Source text: (§1) Further, the compounds of the invention may be tested in binding assays and functional activity assays by well known methods for other physiologically important receptors such as, but not limited to, the hERO channel, other serotonin receptors (specifically 5-HT1B, 5-HT1D, receptors, lack of agonist activity at 5-HT2B receptors, 5-HT2C, 5-HT5, 5-HT6, and 5-HT7 receptors), dopaminergic receptors (specifically D1, D2, and D3), GABAA receptors, adrenergic receptors and monoamine transporters.

[2] = target: T1, recombinant H1 receptor (human) (Homo sapiens, UniProt P35367); experiment: H1 competition binding assay ([3H]-Pyrilamine, SPA)
T1 construct: expressed in transfected cells; host or cells: HEK-293 (membranes)
Procedure: [^3H]-Pyrilamine binding experiments are carried out in SPA (scintillation proximity assay) 96-well format. Membranes used in this assay are prepared from HEK-293 cells stably expressing recombinant H1 receptor (human). The incubation is initiated by the addition of a mixture of WGA PVT SPA beads (1 mg/well, Perkin Elmer (MA, USA) RPNQ0001) and 3 μg membranes to assay buffer (67 mM Tris; pH 7.6) containing 3.5 nM [^3H]-Pyrilamine and varying concentrations of the test compound (10 point concentration response curves). Non-specific binding is determined in the presence of 10 μM Triprolidine. Samples are incubated for 4 hr. at room temperature (22° C.) and then read in a Microbeta Trilux.
(§2) Curves are evaluated using a 4-parameter logistic nonlinear equation to obtain the concentration of competitor causing 50% inhibition of radioligand binding (IC50). Equilibrium dissociation constants (Ki) are calculated according to the equation Ki=IC50/(1+L/Kd), where L equals the concentration of radioligand used in the experiment and Kd equals the equilibrium dissociation constant of the radioligand for the receptor, determined from standard saturation analysis or homologous competition experiments. Reported values for Ki, where n values are indicated, are shown as geometric mean±the standard error of the mean (SEM), with the number of replicate determinations indicated by n. […]

[3] = target: Dopamine D1 (Homo sapiens, UniProt P21728); experiment: Dopamine D1 binding
Chain of Dopamine D1 (P21728 whole entry): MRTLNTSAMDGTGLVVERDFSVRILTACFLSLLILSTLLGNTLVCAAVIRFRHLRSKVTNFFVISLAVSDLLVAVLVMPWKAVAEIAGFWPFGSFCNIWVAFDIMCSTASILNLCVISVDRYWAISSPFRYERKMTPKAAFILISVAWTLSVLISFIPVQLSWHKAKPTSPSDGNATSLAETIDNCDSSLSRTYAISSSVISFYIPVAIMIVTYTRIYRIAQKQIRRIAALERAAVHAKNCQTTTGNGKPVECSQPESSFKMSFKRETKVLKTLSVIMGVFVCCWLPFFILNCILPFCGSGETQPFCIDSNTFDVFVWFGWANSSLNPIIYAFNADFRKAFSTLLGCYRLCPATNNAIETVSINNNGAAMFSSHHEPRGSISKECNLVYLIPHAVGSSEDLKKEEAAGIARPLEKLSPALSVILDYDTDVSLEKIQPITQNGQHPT
Source text: as §1

[4] = target: hERG Channel (Homo sapiens, UniProt Q12809); experiment: hERG channel
Source text: as §1

[5] = target: 5-HT5 (Homo sapiens, UniProt P47898); experiment: 5-HT5 binding
Chain of 5-HT5 (P47898 whole entry, species assumed): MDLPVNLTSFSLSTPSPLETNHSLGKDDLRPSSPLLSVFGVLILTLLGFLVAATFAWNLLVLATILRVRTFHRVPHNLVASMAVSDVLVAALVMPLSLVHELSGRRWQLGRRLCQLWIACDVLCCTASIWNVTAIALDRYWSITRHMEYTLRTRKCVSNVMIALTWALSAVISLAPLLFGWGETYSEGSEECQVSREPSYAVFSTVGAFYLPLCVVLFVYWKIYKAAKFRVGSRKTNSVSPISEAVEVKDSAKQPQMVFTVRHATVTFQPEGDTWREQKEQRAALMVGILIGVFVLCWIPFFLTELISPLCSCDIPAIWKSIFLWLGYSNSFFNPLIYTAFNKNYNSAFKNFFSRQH
Source text: as §1

[6] = target: Dopamine Transporter (Homo sapiens, UniProt Q01959); experiment: Dopamine transporter binding
Source text: as §1

[7] = target: Serotonin Transporter (Homo sapiens, UniProt P31645); experiment: Serotonin transporter binding
Chain of Serotonin Transporter (P31645 whole entry): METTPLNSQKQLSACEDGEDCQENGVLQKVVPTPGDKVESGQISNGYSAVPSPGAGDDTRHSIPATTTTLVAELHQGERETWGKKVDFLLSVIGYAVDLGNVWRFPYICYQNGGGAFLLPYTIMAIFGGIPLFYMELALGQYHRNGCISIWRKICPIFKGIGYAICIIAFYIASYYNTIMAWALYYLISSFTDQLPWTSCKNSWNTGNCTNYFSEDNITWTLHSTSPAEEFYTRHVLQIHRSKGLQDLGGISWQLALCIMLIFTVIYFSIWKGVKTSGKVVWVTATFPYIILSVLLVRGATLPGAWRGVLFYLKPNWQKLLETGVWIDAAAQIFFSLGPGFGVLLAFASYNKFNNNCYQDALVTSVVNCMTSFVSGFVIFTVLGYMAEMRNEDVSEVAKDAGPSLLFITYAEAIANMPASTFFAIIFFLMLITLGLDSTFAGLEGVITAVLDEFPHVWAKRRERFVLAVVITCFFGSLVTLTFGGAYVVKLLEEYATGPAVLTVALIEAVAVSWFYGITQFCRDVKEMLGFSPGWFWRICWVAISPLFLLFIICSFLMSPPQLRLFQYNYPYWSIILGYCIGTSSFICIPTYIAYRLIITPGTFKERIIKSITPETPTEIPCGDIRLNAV
Source text: as §1

[8] = Plasma clearance, rat; format: in vivo; settings: male, Sprague Dawley, 1 mg/kg, intravenous, 1 mL/kg of 1.0 mg/mL
Procedure: Male Sprague Dawley rats (body weight range 250-320 g) with indwelling femoral arterial cannulae are obtained from Charles River, Wilmington, Mass. 01887, USA. Test compound is administered intravenously in solution (1 mL/kg) in 20% Captisol® in 22.5 mM phosphate buffer, pH 2, at a final drug concentration of 1.0 mg/mL (free base equivalents). Blood samples are obtained using the indwelling cannula over 24 hr. Samples of plasma are obtained by centrifugation and stored frozen (−20° C.), or on dry ice, prior to analysis. Frozen plasma samples are thawed to room temperature for bioanalysis of concentrations of test compound. A related internal standard compound in acetonitrile/methanol (1:1, v/v) is added to all samples of plasma (1:1, v/v). The samples are centrifuged to remove precipitated protein prior to analysis. The supernatants are analysed by injection and rapid gradient elution on a Javelin Betasil C18 column (20×2.1 mm cartridge, Mobile phase A: Water/1 M NH4HCO3, 2000:10 v/v, Mobile Phase B: MeOH/1 M NH4HCO3, 2000:10 v/v). The eluted analytes are detected by LC-MS-MS analysis using a Sciex API 4000 triple quadrupole mass spectrometer. Concentrations of compound are determined from standards prepared and analysed under identical conditions. Clearance is calculated using non-compartmental analysis in Watson 7.4, Thermo Fisher Scientific, Inc.

[9] = target: Adrenergic alpha2B (Homo sapiens, UniProt P18089); experiment: Adrenergic alpha2B binding
Chain of Adrenergic alpha2B (P18089 whole entry): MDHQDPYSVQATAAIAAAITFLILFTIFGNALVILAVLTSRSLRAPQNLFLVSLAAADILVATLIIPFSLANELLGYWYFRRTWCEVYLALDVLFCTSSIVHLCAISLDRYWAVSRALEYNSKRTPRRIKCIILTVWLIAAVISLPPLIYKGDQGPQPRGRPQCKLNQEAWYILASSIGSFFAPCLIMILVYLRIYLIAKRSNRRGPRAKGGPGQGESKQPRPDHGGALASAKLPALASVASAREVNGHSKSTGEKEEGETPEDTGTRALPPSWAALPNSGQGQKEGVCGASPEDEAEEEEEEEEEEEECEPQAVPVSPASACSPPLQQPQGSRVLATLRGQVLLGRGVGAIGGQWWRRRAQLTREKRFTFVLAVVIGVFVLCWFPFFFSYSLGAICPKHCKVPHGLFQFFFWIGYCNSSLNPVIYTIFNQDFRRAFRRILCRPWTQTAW
Source text: as §1

[10] = target: T2, recombinant 5-HT2A receptor (human) (Homo sapiens, UniProt P28223); experiment: 5-HT2A competition binding assay ([3H]-Ketanserin, SPA)
T2 construct: expressed in transfected cells; host or cells: AV-12 (membranes)
T2 sequence (P28223 whole entry): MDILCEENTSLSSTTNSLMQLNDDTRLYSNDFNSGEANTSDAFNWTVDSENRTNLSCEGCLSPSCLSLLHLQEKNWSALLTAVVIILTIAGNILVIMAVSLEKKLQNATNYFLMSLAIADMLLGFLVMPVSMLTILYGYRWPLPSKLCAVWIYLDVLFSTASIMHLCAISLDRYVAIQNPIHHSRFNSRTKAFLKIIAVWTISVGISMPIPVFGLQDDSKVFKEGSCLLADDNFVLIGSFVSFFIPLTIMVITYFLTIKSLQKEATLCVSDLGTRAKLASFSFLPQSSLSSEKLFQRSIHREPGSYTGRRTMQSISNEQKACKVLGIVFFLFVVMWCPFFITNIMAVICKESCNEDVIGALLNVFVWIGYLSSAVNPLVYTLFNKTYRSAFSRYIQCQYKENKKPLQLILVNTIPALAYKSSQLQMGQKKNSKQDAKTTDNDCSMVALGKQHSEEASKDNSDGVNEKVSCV
Procedure: [^3H]-Ketanserin binding experiments are carried out in SPA 96-well format. Membranes used in this assay are prepared from AV-12 cells stably expressing recombinant 5-HT2A receptor (human). The incubation is initiated by the addition of a mixture of WGA YSi SPA beads (1 mg/well, Perkin Elmer (MA, USA), RPNQ0011) and 2 μg membranes to assay buffer (67 mM Tris, 0.5 mM EDTA; pH 7.6) containing 3.1 nM [^3H]-Ketanserin and varying concentrations of the test compound (10 point concentration response curves). Non-specific binding is determined in the presence of 20 μM 1-(1-Naphthyl) piperazine. Samples are incubated for 4 hr. at room temperature (22° C.) and then read in a Microbeta Trilux.
as §2

[11] = target: T3, recombinant 5-HT2C receptor (human) (Homo sapiens, UniProt P28335); experiment: 5-HT2C competition binding assay ([125I]-DOI, SPA)
T3 construct: expressed in transfected cells; host or cells: AV-12 (membranes)
T3 sequence (P28335 33-458): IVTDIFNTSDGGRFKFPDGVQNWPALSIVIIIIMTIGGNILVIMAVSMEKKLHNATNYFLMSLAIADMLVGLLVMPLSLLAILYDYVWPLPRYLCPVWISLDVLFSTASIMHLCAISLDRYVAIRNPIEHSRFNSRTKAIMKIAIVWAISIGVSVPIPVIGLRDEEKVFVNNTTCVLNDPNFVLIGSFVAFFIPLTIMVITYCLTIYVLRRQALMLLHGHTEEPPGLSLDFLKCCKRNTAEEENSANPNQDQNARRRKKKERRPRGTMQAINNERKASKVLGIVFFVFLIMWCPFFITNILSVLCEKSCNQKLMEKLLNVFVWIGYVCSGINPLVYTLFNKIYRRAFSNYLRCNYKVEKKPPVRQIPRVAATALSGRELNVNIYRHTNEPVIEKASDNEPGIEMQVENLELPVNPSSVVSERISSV
Procedure: [^125I]-(±)DOI binding experiments are carried out in SPA 96-well format. Membranes used in this assay are prepared from AV-12 cells stably expressing recombinant 5-HT2C receptor (human). The incubation is initiated by the addition of a mixture of WGA PVT SPA beads (0.5 mg/well, Perkin Elmer (MA, USA), RPNQ0001) and 2.5 μg membranes to assay buffer (50 mM Tris-HCl, 10 mM MgCl2, 0.5 mM EDTA, 10 μM pargyline, 0.1% ascorbic acid, pH7.4) containing 0.2 nM [[^125I]-(±)DOI and varying concentrations of the test compound (10 point concentration response curves). Non-specific binding is determined in the presence of 20 μM 1-(1-Naphthyl) piperazine. Samples are incubated for 4 hr. at room temperature (22° C.) and then read in a Microbeta Trilux.
as §2, with “experiments.” for “experiments. Reported values for Ki, where n values are indicated, are shown as geometric mean±the standard error of the mean (SEM), with the number of replicate determinations indicated by n.”

[12] = target: 5-HT7 (Homo sapiens, UniProt P34969); experiment: 5-HT7 binding
Chain of 5-HT7 (P34969 whole entry, species assumed): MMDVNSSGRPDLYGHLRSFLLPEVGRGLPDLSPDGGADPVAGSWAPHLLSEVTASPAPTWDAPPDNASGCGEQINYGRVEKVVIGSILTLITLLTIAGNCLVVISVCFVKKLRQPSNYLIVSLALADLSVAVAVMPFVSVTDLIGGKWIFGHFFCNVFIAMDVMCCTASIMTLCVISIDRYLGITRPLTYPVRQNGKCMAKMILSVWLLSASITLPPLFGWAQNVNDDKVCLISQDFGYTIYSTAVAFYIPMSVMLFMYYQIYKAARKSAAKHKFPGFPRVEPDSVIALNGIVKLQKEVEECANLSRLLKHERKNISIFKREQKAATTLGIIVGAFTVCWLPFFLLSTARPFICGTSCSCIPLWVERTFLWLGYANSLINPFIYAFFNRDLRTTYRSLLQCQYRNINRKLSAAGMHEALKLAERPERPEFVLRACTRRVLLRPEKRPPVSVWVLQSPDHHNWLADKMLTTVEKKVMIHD
Source text: as §1

[13] = target: Dopamine D3 (Homo sapiens, UniProt P35462); experiment: Dopamine D3 binding
Chain of Dopamine D3 (P35462 whole entry): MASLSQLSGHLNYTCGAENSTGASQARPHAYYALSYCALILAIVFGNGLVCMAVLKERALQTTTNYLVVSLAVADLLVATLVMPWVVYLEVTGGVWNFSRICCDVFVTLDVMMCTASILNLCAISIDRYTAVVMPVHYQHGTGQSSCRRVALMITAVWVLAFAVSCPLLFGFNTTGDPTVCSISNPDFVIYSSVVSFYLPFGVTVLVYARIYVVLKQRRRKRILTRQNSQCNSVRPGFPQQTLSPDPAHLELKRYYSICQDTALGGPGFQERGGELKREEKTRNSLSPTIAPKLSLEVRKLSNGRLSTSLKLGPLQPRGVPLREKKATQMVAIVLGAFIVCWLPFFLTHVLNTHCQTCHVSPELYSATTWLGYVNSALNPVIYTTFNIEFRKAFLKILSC
Source text: as §1

[14] = target: Adrenergic alpha1A (Homo sapiens, UniProt P35348); experiment: Adrenergic alpha1A binding
Source text: as §1

[15] = target: Adrenergic alpha2A (Homo sapiens, UniProt P08913); experiment: Adrenergic alpha2A binding
Chain of Adrenergic alpha2A (P08913 whole entry): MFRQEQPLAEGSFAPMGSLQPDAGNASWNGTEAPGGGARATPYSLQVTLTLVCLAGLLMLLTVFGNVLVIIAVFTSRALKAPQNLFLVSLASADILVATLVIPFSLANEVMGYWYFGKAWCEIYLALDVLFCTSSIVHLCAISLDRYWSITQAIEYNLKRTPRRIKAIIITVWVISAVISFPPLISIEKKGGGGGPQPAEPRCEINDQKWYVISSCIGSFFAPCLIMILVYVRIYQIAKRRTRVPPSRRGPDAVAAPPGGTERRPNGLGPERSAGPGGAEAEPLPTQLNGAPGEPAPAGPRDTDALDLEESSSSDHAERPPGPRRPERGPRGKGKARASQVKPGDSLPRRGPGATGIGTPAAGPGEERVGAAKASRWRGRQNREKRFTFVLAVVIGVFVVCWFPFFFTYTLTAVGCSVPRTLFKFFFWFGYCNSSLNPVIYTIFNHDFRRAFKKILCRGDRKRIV
Source text: as §1

Chain of Dopamine D2 (P14416 whole entry): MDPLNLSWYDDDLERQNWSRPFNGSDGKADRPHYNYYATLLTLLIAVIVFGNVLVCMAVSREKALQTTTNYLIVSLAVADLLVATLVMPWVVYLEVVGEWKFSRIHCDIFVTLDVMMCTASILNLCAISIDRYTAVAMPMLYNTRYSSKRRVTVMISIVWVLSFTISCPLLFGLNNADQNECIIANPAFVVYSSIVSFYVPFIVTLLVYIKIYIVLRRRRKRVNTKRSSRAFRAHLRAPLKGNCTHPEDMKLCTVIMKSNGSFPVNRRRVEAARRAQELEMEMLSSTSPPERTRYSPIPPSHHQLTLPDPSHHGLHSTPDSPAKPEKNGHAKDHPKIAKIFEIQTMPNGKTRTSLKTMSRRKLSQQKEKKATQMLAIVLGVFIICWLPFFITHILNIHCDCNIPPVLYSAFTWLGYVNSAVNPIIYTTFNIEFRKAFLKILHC

Q: Which results are given for `Cc1ccc2c(c1)Oc1sc(C)cc1C(N1CCN(CC(C)(C)C(=O)O)CC1)=N2` [Example 2, 3-[4-(2,8-Dimethylthieno[2,3-b][1,5]benzoxazepin-4-yl)piperazin-1-yl]-2,2-dimethyl-propanoic acid dihydrochloride]?
A: Ki [1]: 2480 nM; Ki [2]: 131 nM; Ki [3]: 2350 nM; hERG Channel [4]: >100 µM; Ki [5]: > 8830 nM; Ki [6]: > 877 nM; Ki [7]: > 651 nM; clearance [8]: 27 mL/min/kg; Ki [9]: 3710 nM; Ki [10]: 11.3 nM; Ki [11]: 883 nM; Ki [12]: > 2060 nM; Ki [13]: > 5660 nM; Ki [14]: > 10500 nM; Ki [15]: > 9020 nM
